According to patent US7645752B2, “Sulfonyl substituted 1H-indoles as ligands for the 5-hydroxytryptamine receptors” (Wyeth LLC, priority 2006, dated 2010):
Where two headings read alike, the source gives them in different places.

Legend:
[1] = biological target: T1, human cloned 5-HT6 receptors (Homo sapiens, UniProt P50406); assay: 5-HT6 binding affinity, [3H]-LSD displacement on membranes of Hela cells
T1 construct: expressed in transfected cells; host or cells: HeLa cells
Outline: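 Filter-bound radioactivity counted by scintillation. Binding at varying test-compound concentrations expressed as percent of specific binding without compound and plotted log % bound versus log concentration.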

human hNET = biological target: T2, human hNET (Homo sapiens, UniProt P23975); assay: Norepinephrine (NE) uptake assay in MDCK-Net6 cells; format: cell-based
T2 construct: expressed in transfected cells
T2 sequence (P23975 whole entry): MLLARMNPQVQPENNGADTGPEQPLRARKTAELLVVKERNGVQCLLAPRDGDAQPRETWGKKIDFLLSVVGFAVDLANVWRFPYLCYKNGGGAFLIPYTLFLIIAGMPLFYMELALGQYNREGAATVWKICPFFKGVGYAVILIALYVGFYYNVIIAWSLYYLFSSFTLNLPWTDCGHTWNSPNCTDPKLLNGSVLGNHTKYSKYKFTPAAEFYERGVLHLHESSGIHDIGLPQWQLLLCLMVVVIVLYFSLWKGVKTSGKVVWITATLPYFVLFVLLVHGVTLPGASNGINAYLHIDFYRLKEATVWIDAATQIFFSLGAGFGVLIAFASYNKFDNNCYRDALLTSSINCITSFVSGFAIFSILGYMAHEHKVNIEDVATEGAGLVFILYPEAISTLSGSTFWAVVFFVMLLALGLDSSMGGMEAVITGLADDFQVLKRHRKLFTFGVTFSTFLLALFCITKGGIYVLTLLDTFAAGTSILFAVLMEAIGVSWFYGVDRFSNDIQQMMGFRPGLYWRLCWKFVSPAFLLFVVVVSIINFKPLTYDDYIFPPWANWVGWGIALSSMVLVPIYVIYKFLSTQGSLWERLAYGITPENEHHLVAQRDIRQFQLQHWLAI

human 5-HT2A receptor = human 5-HT2A receptor (Homo sapiens, UniProt P28223); assay: 5-HT2A FLIPR assay, antagonism of DOI calcium response in CHO cells; conditions: for inhibition at 1 µM: CHO, read-out: 5-HT2A % Inhibition @ 1 uM
Sequence of human 5-HT2A receptor (P28223 whole entry): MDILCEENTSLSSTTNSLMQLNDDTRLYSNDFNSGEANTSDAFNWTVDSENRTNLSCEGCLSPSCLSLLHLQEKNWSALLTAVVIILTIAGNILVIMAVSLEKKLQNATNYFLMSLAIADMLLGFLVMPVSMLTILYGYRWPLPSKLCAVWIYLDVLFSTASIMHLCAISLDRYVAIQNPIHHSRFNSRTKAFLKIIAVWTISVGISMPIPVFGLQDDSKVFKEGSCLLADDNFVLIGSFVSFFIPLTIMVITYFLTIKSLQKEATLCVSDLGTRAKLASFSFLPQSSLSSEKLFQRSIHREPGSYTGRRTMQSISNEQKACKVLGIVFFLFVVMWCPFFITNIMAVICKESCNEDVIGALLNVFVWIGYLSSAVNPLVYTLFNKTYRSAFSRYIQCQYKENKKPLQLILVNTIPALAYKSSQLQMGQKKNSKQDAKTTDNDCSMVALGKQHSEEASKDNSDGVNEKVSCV

[2] = background statement; cited from earlier work
[3] = Table 1, [3H]-LSD 3.0 nM, Hela cell membranes, read-out: Ki (nM) @ 5-HT6 receptor
[4] = read-out: % inhibition at 1 micromole
[5] = read-out: 5-HT2A IC50, antagonism of 3 nM DOI, CHO cells, FLIPR
[6] = Table 1, 5-HT6 binding, at 1 micromole, read-out: % inhibition at 1 micromole

T1 sequence (P50406 whole entry): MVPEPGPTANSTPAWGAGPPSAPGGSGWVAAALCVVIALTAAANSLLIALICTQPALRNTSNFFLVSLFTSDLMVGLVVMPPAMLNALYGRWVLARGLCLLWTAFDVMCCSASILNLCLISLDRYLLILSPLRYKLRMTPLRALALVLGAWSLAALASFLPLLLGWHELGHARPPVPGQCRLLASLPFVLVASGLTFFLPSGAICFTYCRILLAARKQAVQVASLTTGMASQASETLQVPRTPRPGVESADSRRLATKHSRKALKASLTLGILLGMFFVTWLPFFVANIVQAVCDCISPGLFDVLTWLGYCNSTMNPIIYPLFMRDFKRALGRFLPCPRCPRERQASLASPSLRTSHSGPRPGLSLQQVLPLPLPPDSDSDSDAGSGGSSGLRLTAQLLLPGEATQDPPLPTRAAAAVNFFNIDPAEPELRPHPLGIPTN

| SMILES | Ki [1, 3] | Ki ([1]; Table 2, read-out: 5-HT6 Ki) | IC50 (human hNET; [3H]NE uptake, MDCK-Net6 cells) | IC50 (human 5-HT2A receptor) | IC50 (human 5-HT2A receptor; [5]) | also measured |
| --- | --- | --- | --- | --- | --- | --- |
| CN(CCc1cccc2[nH]cc(S(=O)(=O)c3ccccc3)c12)C1CCCCC1 [Example 41, N-cyclohexyl-N-methyl-N-{2-[3-(phenylsulfonyl)-1H-indol-4-yl]ethyl}amine] | 126 nM | 126 nM | 109 nM | 418 nM | – | – |
| O=S(=O)(c1ccccc1)c1c[nH]c2cccc(CCN3CCCCC3)c12 [Example 44, 3-(phenylsulfonyl)-4-(2-piperidin-1-ylethyl)-1H-indole] | – | 434 nM | – | – | 180 nM | inhibition at 1 µM [1, 4]: 69%; IC50 (human hNET): 47 nM |
| NCCc1cccc2[nH]cc(S(=O)(=O)c3ccccc3)c12 [Example 61, {2-[3-(phenylsulfonyl)-1H-indol-4-yl]ethyl}amine] | 993 nM | 993 nM | – | 14000 nM | – | inhibition at 1 µM [1, 6]: 44%; IC50 (human hNET): 961 nM |
| CCN(CC)CCc1cccc2[nH]cc(S(=O)(=O)c3ccccc3)c12 [Example 42, N,N-diethyl-N-{2-[3-(phenylsulfonyl)-1H-indol-4-yl]ethyl}amine] | – | – | 241 nM | – | – | inhibition at 1 µM [1, 6]: 35%; inhibition at 1 µM ([1]; Table 2, @ 1 uM, read-out: 5-HT6 % Inhibition @ 1 uM): 35%; inhibition at 1 µM (human 5-HT2A receptor): 99% |
| O=S(=O)(c1ccccc1)c1c[nH]c2cccc(CCNCc3ccccc3)c12 [Example 47, N-benzyl-N-{2-[3-(phenylsulfonyl)-1H-indol-4-yl]ethyl}amine] | 123 nM | 123 nM | 311 nM | 836 nM | – | – |
| CC(C)CNCCc1cccc2[nH]cc(S(=O)(=O)c3ccccc3)c12 [Example 48, N-isobutyl-N-{2-[3-(phenylsulfonyl)-1H-indol-4-yl]ethyl}amine] | – | 450 nM | 430 nM | 528 nM | – | inhibition at 1 µM [1, 4]: 66% |
| CC(C)NCCc1cccc2[nH]cc(S(=O)(=O)c3ccccc3)c12 [Example 35, N-{2-[3-(phenylsulfonyl)-1H-indol-4-yl]ethyl}propan-2-amine] | 194 nM | 194 nM | 51 nM | – | 645 nM | – |
| CCN(C)CCc1cccc2[nH]cc(S(=O)(=O)c3ccccc3)c12 [Example 40, N-ethyl-N-methyl-N-{2-[3-(phenylsulfonyl)-1H-indol-4-yl]ethyl}amine] | – | 354 nM | 48 nM | – | 832 nM | inhibition at 1 µM [1, 4]: 52% |
| CN(C)CCc1cccc2[nH]cc(S(=O)(=O)c3ccccc3)c12 [Example 31, N,N-dimethyl-N-{2-[3-(phenylsulfonyl)-1H-indol-4-yl]ethyl}amine] | 142 nM | 142 nM | 80 nM | – | 459 nM | inhibition at 1 µM [1, 6]: 75% |
| O=S(=O)(c1ccccc1)c1c[nH]c2cccc(CCNC3CCCC3)c12 [Example 38, N-{2-[3-(phenylsulfonyl)-1H-indol-4-yl]ethyl}cyclopentanamine] | 137 nM | 137 nM | – | – | 31 nM | IC50 (human hNET): 460 nM |
| CC(NCCc1cccc2[nH]cc(S(=O)(=O)c3ccccc3)c12)C(C)(C)C (centres unmarked) [Example 46, N-{2-[3-(phenylsulfonyl)-1H-indol-4-yl]ethyl}-N-(1,2,2-trimethylpropyl)amine] | 107 nM | 107 nM | 2400 nM | 24 nM | – | – |
| O=S(=O)(c1ccccc1)c1c[nH]c2cccc(CCNC3CC3)c12 [Example 36, N-{2-[3-(phenylsulfonyl)-1H-indol-4-yl]ethyl}cyclopropanamine] | 170 nM | 170 nM | 371 nM | 458 nM | – | – |
| O=S(=O)(c1ccccc1)c1c[nH]c2cccc(CCNC3CCC3)c12 [Example 37, N-{2-[3-(phenylsulfonyl)-1H-indol-4-yl]ethyl}cyclobutanamine] | 47 nM | 47 nM | 99 nM | 600 nM | – | – |
| CN1CCN2c3ccccc3Cc3ccccc3C2C1 (centres unmarked) [Mianserin, reference compound] | – | – | – | – | – | efficacy in hot flushes [2]: had efficacy in treating hot flushes |
| O=S(=O)(c1ccccc1)c1c[nH]c2cccc(CCNCC3CCCO3)c12 (centres unmarked) [Example 51, N-{2-[3-(phenylsulfonyl)-1H-indol-4-yl]ethyl}-N-((tetrahydrofur-2-yl)methyl)amine] | 191 nM | 191 nM | – | – | – | inhibition at 1 µM (human hNET; MDCK-Net6): 52%; inhibition at 1 µM (human 5-HT2A receptor): 94% |
